Reference: article PMC8748767 (Nature Communications, 2022)
Values joined by “and” are separate entries in the source; they are usually repeats but may differ in a detail not shown here. Equal entries are not always repeated. Where two headings read alike, the source gives them in different places.

How the values were obtained:
[1] = biological target: TH, THNΔ35, THNΔ43, THNΔ70, THS40p (Homo sapiens, UniProt P07101); settings: far-UV SRCD, two-fold molar ratio of DA
Experimental: SRCD spectra were collected as from 280 to 170 nm (3 scans averaged) at 25 °C on the AU-UV beamline at ASTRID2, part of the Institute for Storage Rings (ISA) facility at the University of Aarhus, Denmark. […] The path length of the cell was confirmed using an interferometry method and found to be 100.1 µm. The protein concentration was measured using Abs280nm prior to the measurements and more accurately by A205nm from the absorption spectra measured simultaneously with the CD spectra, using the respective theoretical extinction coefficients[65]. The A205nm measurements were used in the conversion of raw CD units to ∆ε(M^−1cm^−1) values. Secondary structure content was determined in the 250–180 nm range using the BeStSel algorithm[66].

[2] = biological target: THNΔ70 (human TH with the entire N-terminal removed) (Homo sapiens, UniProt P07101); assay: Assay of TH activity and inhibition by DA, deletion mutant THNΔ70; type: biochemical
Chain of THNΔ70 (human TH with the entire N-terminal removed) (P07101 102-528 limits assumed, stated change not applied): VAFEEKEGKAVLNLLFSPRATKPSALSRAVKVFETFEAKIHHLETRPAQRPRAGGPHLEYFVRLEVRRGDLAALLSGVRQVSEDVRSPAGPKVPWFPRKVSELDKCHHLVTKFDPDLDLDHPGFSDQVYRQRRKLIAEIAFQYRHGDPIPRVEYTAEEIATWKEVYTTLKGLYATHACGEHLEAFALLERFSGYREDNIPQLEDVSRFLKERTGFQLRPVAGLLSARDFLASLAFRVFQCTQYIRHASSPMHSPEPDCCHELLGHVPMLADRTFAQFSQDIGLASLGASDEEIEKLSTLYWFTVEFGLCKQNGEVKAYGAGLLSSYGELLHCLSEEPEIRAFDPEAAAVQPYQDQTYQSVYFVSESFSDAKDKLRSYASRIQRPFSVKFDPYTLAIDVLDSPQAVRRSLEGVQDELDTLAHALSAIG
Experimental: (§1) The activity of purified TH and truncated forms was assayed at 37 °C[7]. The purified enzymes were kept on ice and diluted with 0.5% (w/v) bovine serum albumin in 20 mM Na-Hepes pH 7, 200 mM NaCl and centrifuged at 10,000 × g for 5 min at 4 °C. […] TH was added to a final concentration of 1 µg/ml (17 nM subunit) and preincubated at 37 °C for 1 min. […] Protein was removed by precipitation at −20 °C for 90 min followed by centrifugation at 20,000 × g for 14 min at 4 °C. The amount of L-Dopa in the supernatant was determined using a 1200 series high performance liquid chromatography (HPLC) system (Agilent technologies). The chromatographic separation was obtained using an Agilent Zorbax 300-SCX column with 20 mM HAc pH 3.5, 2% (v/v) propanol as mobile phase at a flow rate of 3 ml/min. The fluorescence detector was set to λex = 280 nm and λem = 314 nm.
(§2) Statistical analyses were performed with Graphpad Prism software version 8.3.0. For SRCD, DSC and TH activity measurements, three enzyme samples from independent protein purifications were measured and the mean ± SD (standard deviation) was calculated. The homogeneity of variances was confirmed by Brown-Forsythe tests and multiple comparisons were made using one-way analysis of variance (ANOVA) followed by a post hoc HSD Tukey test. […] The individual curves were fitted to a four-parameter logistic curve by the [Inhibitor] vs. response—Variable slope equation (y = min + ((max − min)/(1 + IC50/X)^Hill Slope) in Graphpad and the mean IC50 ± SD reported.

[3] = biological target: THS40p (S40 phosphorylated human TH) (Homo sapiens, UniProt P07101); assay: biochemical
Chain of THS40p (S40 phosphorylated human TH) (P07101 1-497 isoform P07101-3): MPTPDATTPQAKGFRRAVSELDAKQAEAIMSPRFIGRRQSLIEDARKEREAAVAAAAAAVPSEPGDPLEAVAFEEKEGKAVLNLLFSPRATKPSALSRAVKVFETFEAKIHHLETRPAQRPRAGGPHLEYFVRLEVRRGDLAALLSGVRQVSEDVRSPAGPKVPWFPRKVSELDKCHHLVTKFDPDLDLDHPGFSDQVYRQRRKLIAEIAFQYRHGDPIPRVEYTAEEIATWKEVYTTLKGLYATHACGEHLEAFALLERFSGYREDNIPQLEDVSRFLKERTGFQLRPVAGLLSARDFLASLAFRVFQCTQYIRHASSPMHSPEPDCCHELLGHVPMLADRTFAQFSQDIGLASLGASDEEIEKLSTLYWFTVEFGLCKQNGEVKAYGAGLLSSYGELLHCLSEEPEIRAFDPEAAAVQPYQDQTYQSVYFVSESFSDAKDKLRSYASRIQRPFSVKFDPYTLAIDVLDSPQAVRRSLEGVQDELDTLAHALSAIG
Experimental: TH was phosphorylated on S40 (control without kinase)[3], using the catalytic subunit of cAMP-dependent protein kinase (CatPKA, kind gift from S.O. Døskeland[64]). TH (4 mg/ml) was assayed in 50 mM Na-β-glycerophosphate pH 7.5, 1 mM DTT, 0.1 mM EGTA, 1x protease inhibitor cocktail (without EDTA, Pierce), 0.5 mM ATP, 5 mM MgCl2 and incubated with the catalytic subunit of CatPKA (200 nM, diluted from 20 µM in 60% glycerol, 0.5 mg/ml soya bean trypsin inhibitor) for 30 min at 25 °C. […] After phosphorylation, H89 (Sigma) (5 µM) was added and the samples were exchanged into 20 mM Hepes pH 7.0, 200 mM NaCl.
as §1
Statistical analyses were performed with Graphpad Prism software version 8.3.0. For SRCD, DSC and TH activity measurements, three enzyme samples from independent protein purifications were measured and the mean ± SD (standard deviation) was calculated. The homogeneity of variances was confirmed by Brown-Forsythe tests and multiple comparisons were made using one-way analysis of variance (ANOVA) followed by a post hoc HSD Tukey test. […]

THNΔ43 = biological target: T1, THNΔ43 (Homo sapiens, UniProt P07101); assay: Differential scanning calorimetry (DSC), thermal stability with DA, THNΔ43; type: binding
T1 construct: His-MBP (TEV site) (N, cleaved yes); made in house
T1 sequence (P07101 75-528 limits assumed, stated change not applied): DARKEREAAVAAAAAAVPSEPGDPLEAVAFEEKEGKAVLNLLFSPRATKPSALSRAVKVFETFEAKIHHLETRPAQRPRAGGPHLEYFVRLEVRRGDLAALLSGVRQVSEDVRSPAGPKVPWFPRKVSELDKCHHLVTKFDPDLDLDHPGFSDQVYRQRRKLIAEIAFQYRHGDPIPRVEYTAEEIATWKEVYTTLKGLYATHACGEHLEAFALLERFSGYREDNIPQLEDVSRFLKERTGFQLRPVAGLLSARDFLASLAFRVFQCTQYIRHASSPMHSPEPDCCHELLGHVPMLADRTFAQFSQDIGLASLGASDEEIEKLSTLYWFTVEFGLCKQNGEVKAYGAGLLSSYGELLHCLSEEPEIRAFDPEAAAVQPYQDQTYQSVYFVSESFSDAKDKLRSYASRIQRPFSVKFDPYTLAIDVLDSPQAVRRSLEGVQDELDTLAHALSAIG
Experimental: (§3) In all experiments, 9 μM TH in 20 mM Na-Hepes pH 7, 200 mM NaCl was used, with the same buffer as reference, heating from 25 to 75 °C at a scan rate of 200 °C/h.

[4] = biological target: T2, full-length human TH (TH1) (Homo sapiens, UniProt P07101); assay: biochemical; settings: for IC50: mean ± SD, n = 3, 37 °C, 50 µM L-Tyr, 200 µM BH4
T2 sequence (P07101 1-497 isoform P07101-3): as the sequence (P07101 1-497 isoform P07101-3) above
Experimental: as §1, §2

[5] = biological target: T2, full-length human TH (TH1); assay: Differential scanning calorimetry (DSC), thermal stability with DA, TH; type: binding
Experimental: as §3

[6] = biological target: THNΔ43 (human TH lacking the N-terminal 43 residues) (Homo sapiens, UniProt P07101); assay: Assay of TH activity and inhibition by DA, deletion mutant THNΔ43; type: biochemical
Chain of THNΔ43 (human TH lacking the N-terminal 43 residues) (P07101 75-528 limits assumed, stated change not applied): as the sequence (P07101 75-528 limits assumed, stated change not applied) above
Experimental: as §1, §2

[7] = biological target: THNΔ35 (human TH with the first 35 residues deleted) (Homo sapiens, UniProt P07101); assay: Assay of TH activity and inhibition by DA, deletion mutant THNΔ35; type: biochemical
Chain of THNΔ35 (human TH with the first 35 residues deleted) (P07101 67-528 limits assumed, stated change not applied): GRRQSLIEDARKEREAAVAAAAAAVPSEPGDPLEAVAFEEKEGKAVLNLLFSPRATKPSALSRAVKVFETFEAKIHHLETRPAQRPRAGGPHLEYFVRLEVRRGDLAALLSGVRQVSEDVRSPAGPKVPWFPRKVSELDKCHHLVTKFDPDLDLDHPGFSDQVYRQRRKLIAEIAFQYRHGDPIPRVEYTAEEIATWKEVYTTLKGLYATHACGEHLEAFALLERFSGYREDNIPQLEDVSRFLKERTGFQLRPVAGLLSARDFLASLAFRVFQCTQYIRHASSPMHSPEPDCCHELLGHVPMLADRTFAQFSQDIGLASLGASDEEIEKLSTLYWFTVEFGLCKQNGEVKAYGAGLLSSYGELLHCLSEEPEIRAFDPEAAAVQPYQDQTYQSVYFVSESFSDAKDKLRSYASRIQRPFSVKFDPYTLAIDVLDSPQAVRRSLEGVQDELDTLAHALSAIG
Experimental: as §1, §2

THNΔ35 = biological target: T3, THNΔ35 (Homo sapiens, UniProt P07101); assay: Differential scanning calorimetry (DSC), thermal stability with DA, THNΔ35; type: binding
T3 construct: His-MBP (TEV site) (N, cleaved yes); made in house
T3 sequence (P07101 67-528 limits assumed, stated change not applied): as above
Experimental: as §3

THNΔ70 = biological target: T4, THNΔ70 (Homo sapiens, UniProt P07101); assay: Differential scanning calorimetry (DSC), thermal stability with DA, THNΔ70; type: binding
T4 construct: His-MBP (TEV site) (N, cleaved yes); made in house
T4 sequence (P07101 102-528 limits assumed, stated change not applied): as the sequence (P07101 102-528 limits assumed, stated change not applied) above
Experimental: as §3

[8] = individual samples (source data Sup Table 9)

Chain of TH, THNΔ35, THNΔ43, THNΔ70, THS40p (P07101 1-497 isoform P07101-3): as the sequence (P07101 1-497 isoform P07101-3) above

Structure (SMILES): NCCc1ccc(O)c(O)c1 [DA, dopamine]
- Effect of incubation with DA on secondary structure (helix content) of TH [1]: no increase in helix content
- IC50 ([2]; THNΔ70, mean ± SD, n = 3, 37 °C, 50 µM L-Tyr, 200 µM BH4): 19.4 ± 5.6 µM
- remaining activity at 0.2 µM ([2]; read-out: Relative TH activity, THNΔ70, 0.20 µM dopamine, relative to mean activity with 0 µM DA, replicates): 113%
- remaining activity at 12.58 µM ([2]; read-out: Relative TH activity, THNΔ70, […] µM dopamine, relative to mean activity with 0 µM DA, replicates): 74.6%
- remaining activity at 50.31 µM ([2]; read-out: Relative TH activity, THNΔ70, 50.31 µM dopamine, relative to mean activity with 0 µM DA, replicates): 35.7%
- remaining activity at 201.25 µM ([2]; read-out: Relative TH activity, THNΔ70, 201.25 µM dopamine, relative to mean activity with 0 µM DA, replicates): 13.3%
- remaining activity at 1000 µM ([3]; 5 min, read-out: Relative TH activity, THS40p, 1000.00 µM dopamine, relative to mean activity with 0 µM DA, replicates): 0%
- IC50 ([3]; Dopamine IC50, THS40p, source data Fig 5f, SEM in a column of its own): 12.4 µM
- IC50 ([3]; THS40p, mean ± SD, n = 3, 37 °C, 50 µM L-Tyr, 200 µM BH4, read-out: IC50 for DA inhibition of TH activity): 12.4 ± 2.3 µM
- Tonset with DA (THNΔ43; THNΔ43 + two-fold molar ratio of DA, mean ± SD, without DA 43.3 ± 0.9): 43.5 ± 0.5 °C
- Tmax with DA (THNΔ43; THNΔ43 + two-fold molar ratio of DA, mean ± SD, without DA 54.3 ± 1.7): 56.5 ± 0.4 °C
- T max, THNΔ43+DA (THNΔ43; [8]): 56.94 °C and 56.71 °C and 56.44 °C and 56.11 °C
- T onset, THNΔ43+DA (THNΔ43; [8]): 43.98 °C and 42.91 °C and 43.13 °C and 43.87 °C and 43.53 °C
- IC50 ([4]; IC50 for DA inhibition of TH activity): 0.49 ± 0.04 µM
- IC50 ([4]; read-out: IC50 for DA inhibition of TH activity): ~0.5 µM
- remaining activity at 0.08 µM ([4]; read-out: Relative TH activity, TH, 0.08 µM dopamine, relative to mean activity with 0 µM DA, replicates): 102%
- remaining activity at 0.63 µM ([4]; read-out: Relative TH activity, TH, 0.63 µM dopamine, relative to mean activity with 0 µM DA, replicates): 48.2%
- remaining activity at 5 µM ([4]; read-out: Relative TH activity, TH, 5.00 µM dopamine, relative to mean activity with 0 µM DA, replicates): 10%
- remaining activity at 10 µM ([4]; read-out: Relative TH activity, TH, 10.00 µM dopamine, relative to mean activity with 0 µM DA, replicates): 6.24%
- Tonset with DA ([5]; TH + two-fold molar ratio of DA, mean ± SD, without DA 43.3 ± 0.2): 45.2 ± 0.6 °C
- Tmax with DA ([5]; TH + two-fold molar ratio of DA, mean ± SD, without DA 54.9 ± 0.4): 58.6 ± 0.6 °C
- T max, TH+DA [5, 8]: 59.32 °C and 58.94 °C and 58.11 °C and 58.01 °C
- T onset, TH+DA [5, 8]: 45.07 °C and 45.48 °C and 44.42 °C and 45.76 °C
- IC50 ([6]; THNΔ43, mean ± SD, n = 3, 37 °C, 50 µM L-Tyr, 200 µM BH4): 18.1 ± 1 µM
- remaining activity at 0.2 µM ([6]; read-out: Relative TH activity, THNΔ43, 0.20 µM dopamine, relative to mean activity with 0 µM DA, replicates): 105%
- remaining activity at 6.25 µM ([6]; read-out: Relative TH activity, THNΔ43, 6.25 µM dopamine, relative to mean activity with 0 µM DA, replicates): 73.9%
- remaining activity at 12.49 µM ([6]; read-out: Relative TH activity, THNΔ43, […] µM dopamine, relative to mean activity with 0 µM DA, replicates): 59.8%
- remaining activity at 24.98 µM ([6]; read-out: Relative TH activity, THNΔ43, 24.98 µM dopamine, relative to mean activity with 0 µM DA, replicates): 43.9%
- remaining activity at 49.97 µM ([6]; read-out: Relative TH activity, THNΔ43, 49.97 µM dopamine, relative to mean activity with 0 µM DA, replicates): 28.7%
- remaining activity at 199.88 µM ([6]; read-out: Relative TH activity, THNΔ43, 199.88 µM dopamine, relative to mean activity with 0 µM DA, replicates): 11.8%
- IC50 ([7]; THNΔ35, mean ± SD, n = 3, 37 °C, 50 µM L-Tyr, 200 µM BH4): 0.22 ± 0.02 µM
- remaining activity at 0.05 µM ([7]; read-out: Relative TH activity, THNΔ35, 0.05 µM dopamine, relative to mean activity with 0 µM DA, replicates): 89.3%
- remaining activity at 0.1 µM ([7]; read-out: Relative TH activity, THNΔ35, 0.10 µM dopamine, relative to mean activity with 0 µM DA, replicates): 73.8%
- remaining activity at 0.2 µM ([7]; read-out: Relative TH activity, THNΔ35, 0.20 µM dopamine, relative to mean activity with 0 µM DA, replicates): 56.1%
- remaining activity at 0.78 µM ([7]; read-out: Relative TH activity, THNΔ35, […] µM dopamine, relative to mean activity with 0 µM DA, replicates): 29.7%
- remaining activity at 6.25 µM ([7]; read-out: Relative TH activity, THNΔ35, 6.25 µM dopamine, relative to mean activity with 0 µM DA, replicates): 8.14%
- remaining activity at 25 µM ([7]; read-out: Relative TH activity, THNΔ35, […] dopamine, relative to mean activity with 0 µM DA, replicates): 3.12%
- Tonset with DA (THNΔ35; THNΔ35 + two-fold molar ratio of DA, mean ± SD, without DA 37.5 ± 1.2): 39.6 ± 0.3 °C
- Tmax with DA (THNΔ35; THNΔ35 + two-fold molar ratio of DA, mean ± SD, without DA 51.7 ± 0.7): 54.9 ± 1.0 °C
- T max, THNΔ35+DA (THNΔ35; [8]): 56.43 °C and 54.75 °C and 54.43 °C and 54.1 °C
- T onset, THNΔ35+DA (THNΔ35; [8]): 39.27 °C and 39.93 °C and 39.71 °C and 39.61 °C
- Tonset with DA (THNΔ70; THNΔ70 + two-fold molar ratio of DA, mean ± SD, without DA 45.0 ± 0.5): 45.6 ± 0.6 °C
- Tmax with DA (THNΔ70; THNΔ70 + two-fold molar ratio of DA, mean ± SD, without DA 56.0 ± 0.1): 56.4 ± 0.2 °C
- T max, THNΔ70+DA (THNΔ70; [8]): 56.38 °C and 56.21 °C and 56.6 °C
- T onset, THNΔ70+DA (THNΔ70; [8]): 45.36 °C and 45.19 °C and 46.36 °C
